Reference: PMC7297889, “In vivo absolute quantification of striatal and extrastriatal D2/3 receptors with [^123I]epidepride SPECT” (EJNMMI Research, 2020)
pKd: −log10 of the molar value. Where “and” joins values, the source holds several entries; their conditions need not be identical. Equal entries are not always repeated.

How the values were obtained:
D2/3 receptors [1] = assay: multi-injection SPECT protocol, 2T-5k full kinetic modeling; type: in vivo, rat; conditions: mean of 3 rats; for pKd: read-out: appKD
Excerpt: (§1) 18 male Mdr1a (P-glycoprotein) knock-out (KO) rats, weighing between 380 and 500 g, were employed in the study. Using this rat strain allowed us to study the kinetics of [^123I]epidepride independently of the potentially confounding effect of the P-glycoprotein [30–34]. Of these, 3 rats were employed in an in vivo multi-injection SPECT imaging protocol for absolute D2/3 receptor quantification (SPECT-MI in Table 1). Four rats were employed in an arterial plasma analysis for the study of plasma kinetics of the radiotracer and the estimation of the free parent radiotracer fraction (TLC in Table 1). Four rats were employed in a SPECT experiment with a partial D2/3 receptor saturation design for the determination of Bavail and appKd parameters from an in vivo Scatchard plot (SPECT-PSA in Table 1). Finally, 7 rats were employed in a preliminary study of the effect of a chronic haloperidol treatment on the Bavail and appKd of the D2/3 receptors in rats (SPECT-PSA_HAL for haloperidol-treated and SPECT-PSA_CON for control rats in Table 1, see Additional file 1).
(§2) SPECT scans were performed with a U-SPECT-II camera (MiLabs, Utrecht, Netherlands). In rats that underwent SPECT scans with the multi-injection protocol, two polyethylene catheters (i.d. = 0.58 mm, o.d. = 0.96 mm) were inserted in the left femoral vein and artery for radiotracer administration and blood sampling, respectively. On the other hand, in rats that underwent SPECT scans for the partial saturation protocol, radiotracer injection was performed via a tail vein catheter. SPECT scans were performed under isoflurane anesthesia (3% for induction and 1–2% for maintenance). Body temperature was monitored during the scans and maintained at 37 ± 1 °C by means of a thermostatically controlled heating blanket.
(§3) SPECT image reconstruction was performed using a pixel-ordered subset expectation maximization (P-OSEM, 0.4-mm voxel size, 4 iterations, 6 subsets) algorithm using MiLabs image reconstruction software. Radioactive decay correction was performed, while correction for attenuation or scatter was not. Following reconstruction, dynamic images from the partial saturation experiment were denoised with factor analysis (FA) using Pixies software (Apteryx, Issy-les-Moulineaux, France) as previously described. FA allows the decomposition of a dynamic signal into a few elementary components, termed factors. In this study, 3 factors were retained and the rest of the signal was discarded as noise. SPECT images were processed with PMOD software v3.7 (PMOD Technologies Ltd, Zurich, Switzerland). Averaged images corresponding to the ten first frames of the acquisition were co-registered to a magnetic resonance imaging (MRI) template integrated in PMOD [37]. Transformation matrices were then applied to dynamic images.
A multi-injection protocol for full kinetic modeling of [^123I]epidepride was employed. The scan protocol began with a first injection of the radiotracer at a high-specific activity, followed by a second co-injection of [^123I]epidepride and the unlabeled compound at 180 min and a third injection of the unlabeled compound alone at 240 min. The overall scan protocol included 360 1-min frames (Fig. 1).
The whole multi-injection study TAC data was fitted in with a two-tissue compartment five-parameter model (2T-5k), to estimate K1, k2, kon, koff, and Bavail as previously described. The free, non-metabolized radiotracer fraction in the plasma was used as the input function. During dynamic SPECT acquisitions, 40 arterial blood samples (of 25 μl each) were withdrawn after each radiotracer injection at regular time intervals. Radioactivity was measured in a gamma counting system and expressed in kBq/ml after calibration. […]

D2/3 receptors [2] = assay: in vivo partial saturation SPECT study (in vivo Scatchard plot); design: species or system rat; conditions: mean of 4 rats; for pKd: read-out: appKD
Excerpt: as §1, §2, §3
A partial saturation protocol was employed to estimate Bavail and appKd as recently described for another D2/3 radiotracer based on the original description by Delforge et al., as optimized by Wimberley et al.. Briefly, co-injection of a dose of the unlabeled compound at doses that occupy 50–70% of the receptors allows to form a Scatchard plot when the specifically bound fraction of radiotracer (CS) is plotted against the ratio of CS to the non-displaceable binding at the same region (CS/CND). The intercept to the CS axis provides the Bavail and the inverse of the slope the appKd.
In the partial saturation approach, the cerebellar TAC is employed as an approximation of the non-displaceable binding in the target brain VOIs. Given the differences in the concentration of this binding between the Cer and the target VOIs, as well as the presence of a non-negligible specific binding in the Cer with [^123I]epidepride, the cerebellar TAC has to be corrected. […]

[3] = arterial plasma analysis: metabolite correction and plasma protein binding; type: in vivo; conditions: rat arterial plasma, 4 rats
Excerpt: as §1
The whole multi-injection study TAC data was fitted in with a two-tissue compartment five-parameter model (2T-5k), to estimate K1, k2, kon, koff, and Bavail as previously described. The free, non-metabolized radiotracer fraction in the plasma was used as the input function. During dynamic SPECT acquisitions, 40 arterial blood samples (of 25 μl each) were withdrawn after each radiotracer injection at regular time intervals. Radioactivity was measured in a gamma counting system and expressed in kBq/ml after calibration. To estimate the plasma input function in in vivo SPECT experiments, only whole-blood radioactivity was measured individually and the free, non-metabolized radiotracer fraction was fitted using a model estimated in an independent experiment. Indeed, metabolite correction and plasma protein binding analysis for the estimation of radiotracer plasma input function was performed in an independent group of 4 rats, as previously described The analysis was performed in MATLAB software R2019 (Mathworks, USA).
As described in the “Methods” section describing the multi-injection study protocol, in each dynamic brain SPECT study, only whole-arterial blood radioactivity was measured. The free, non-metabolized radiotracer fraction was estimated by fitting average data from an independent group of four rats in an experiment that was independent from the SPECT scan experiments. The parameters of the bi-exponential function describing the kinetics of the mean percent non-metabolized plasma radiotracer were A1 = 0.61, B1 = − 0.20, A2 = 0.27, B2 = − 0.006. Average percentage of radiotracer bound to plasma proteins was 22% (f1 = 0.22 ± 0.06). […]

D2/3 receptors [4] = assay: chronic haloperidol treatment, striatal D2/3 Bavail by [^123I]epidepride partial saturation SPECT; type: in vivo, rat; conditions: for increase in Bavail vs vehicle-treated group: haloperidol 1 mg/kg/day 28 days; for Bavail of [^123I]epidepride in haloperidol-treated group: haloperidol 1 mg/kg/day sc 28 days, scan 7 days after, n=3
Excerpt: as §1
For this purpose, two groups of rats were treated with either haloperidol (1 mg/kg/day, n=3) or vehicle (n=4) for 28 days. A [^123I]epidepride SPECT scan using the partial saturation protocol was performed 7 days (a sufficient period for the complete elimination of haloperidol) after the end of the treatment period to assess neurochemical changes with respect to the D2/3 receptor. The radioactivity doses that were employed are presented in Table 1 (SPECT-PSA_HAL for haloperidol-treated and SPECT-PSA_CON for control rats). Statistical analysis of the difference in the quantitative parameter values between the groups was performed by means of a two-sample t test.
Haloperidol was purchased from Sigma-Aldrich (Buchs, Switzerland). It was dissolved in dimethyl-sulfoxide (DMSO) 50% v/v in water. Osmotic pumps (Alzet, Durect, Cupertino, CA, USA) were employed to continuously deliver the treatment at a dose of 1 mg/kg/day over 28 days. For the pump implantation, rats were anesthetized with isoflurane (3% for induction and 1-2 % for maintenance). Body temperature was monitored during the scans and maintained at 37±1 °C by means of a thermostatically controlled heating blanket. An incision was performed in the lateral abdominal wall and a pump was subcutaneously implanted. Subcutaneous analgesia (0.02 mg/kg/8h sc; Temgesic, Reckitt Benckiser Pharmaceuticals Inc) was administered right before surgery and was continued per os in the drinking water for 48h. For the removal of the osmotic pumps, the same surgical procedure was performed after the end of the treatment period (28 days).

For `CCN1CCC[C@H]1CNC(=O)c1cc(I)cc(OC)c1OC` [[^123I]epidepride], the Bavail (D2/3 receptors [1]; Amy) was 2.71 pmol/mL, the k2 (D2/3 receptors [1]; Amy) was 0.16 min⁻¹ and the koff (D2/3 receptors [1]; Amy) was 0.0005 s⁻¹. It also gave a Κ1 (D2/3 receptors [1]; Amy) of 0.38 mL.cm^-3 .min-^1, a pKd (D2/3 receptors [1]; Amy) of 9.44 and a Bavail (D2/3 receptors [1]; CP) of 24.22 pmol/mL. For the same compound, the k2 (D2/3 receptors [1]; CP) was 0.10 min⁻¹, the koff (D2/3 receptors [1]; CP) was 0.00067 s⁻¹ and the Κ1 (D2/3 receptors [1]; CP) was 0.69 mL.cm^-3 .min-^1. For the same compound, the pKd (D2/3 receptors [1]; CP) was 9.66, the Bavail (D2/3 receptors [1]; Cer) was 2.02 pmol/mL and the k2 (D2/3 receptors [1]; Cer) was 0.20 min⁻¹. The koff (D2/3 receptors [1]; Cer) was 0.00033 s⁻¹, the Κ1 (D2/3 receptors [1]; Cer) was 0.66 mL.cm^-3 .min-^1 and the pKd (D2/3 receptors [1]; Cer) was 9.19. It also gave a Bavail (D2/3 receptors [1]; FC) of 20.67 pmol/mL, a k2 (D2/3 receptors [1]; FC) of 0.09 min⁻¹ and a koff (D2/3 receptors [1]; FC) of 0.0005 s⁻¹. For the same compound, the Κ1 (D2/3 receptors [1]; FC) was 0.40 mL.cm^-3 .min-^1, the pKd (D2/3 receptors [1]; FC) was 8.35 and the Bavail (D2/3 receptors [1]; Hyp) was 3.64 pmol/mL. For the same compound, the k2 (D2/3 receptors [1]; Hyp) was 0.13 min⁻¹, the koff (D2/3 receptors [1]; Hyp) was 0.00083 s⁻¹ and the Κ1 (D2/3 receptors [1]; Hyp) was 0.50 mL.cm^-3 .min-^1. The pKd (D2/3 receptors [1]; Hyp) was 9.43, the Bavail (D2/3 receptors [1]; InfC) was 3.03 pmol/mL and the k2 (D2/3 receptors [1]; InfC) was 0.17 min⁻¹. For the same compound, the koff (D2/3 receptors [1]; InfC) was 0.00067 s⁻¹, the Κ1 (D2/3 receptors [1]; InfC) was 0.80 mL.cm^-3 .min-^1 and the pKd (D2/3 receptors [1]; InfC) was 9.74. It also gave a Bavail (D2/3 receptors [1]; NAc) of 10.18 pmol/mL, a k2 (D2/3 receptors [1]; NAc) of 0.10 min⁻¹ and a koff (D2/3 receptors [1]; NAc) of 0.00067 s⁻¹. The Κ1 (D2/3 receptors [1]; NAc) was 0.53 mL.cm^-3 .min-^1, the pKd (D2/3 receptors [1]; NAc) was 9.82 and the Bavail (D2/3 receptors [1]; SupC) was 3.86 pmol/mL. The k2 (D2/3 receptors [1]; SupC) was 0.16 min⁻¹, the koff (D2/3 receptors [1]; SupC) was 0.00083 s⁻¹ and the Κ1 (D2/3 receptors [1]; SupC) was 0.70 mL.cm^-3 .min-^1. It also gave a pKd (D2/3 receptors [1]; SupC) of 9.55, a Bavail (D2/3 receptors [1]; VTA) of 3.77 pmol/mL and a k2 (D2/3 receptors [1]; VTA) of 0.14 min⁻¹. It also gave a koff (D2/3 receptors [1]; VTA) of 0.00067 s⁻¹, a Κ1 (D2/3 receptors [1]; VTA) of 0.57 mL.cm^-3 .min-^1 and a pKd (D2/3 receptors [1]; VTA) of 9.47. For the same compound, the Bavail (D2/3 receptors [2]; Amy, fixed appKd) was 2.77 pmol/mL, the Bavail (D2/3 receptors [2]; CP) was 21.25 pmol/mL and the pKd (D2/3 receptors [2]; CP) was 10.10. The Bavail (D2/3 receptors [2]; FC, fixed appKd) was 5.15 pmol/mL, the Bavail (D2/3 receptors [2]; Hyp, fixed appKd) was 3.85 pmol/mL and the Bavail (D2/3 receptors [2]; InfC, fixed appKd) was 4.46 pmol/mL. For the same compound, the Bavail (D2/3 receptors [2]; NAc) was 11.75 pmol/mL, the pKd (D2/3 receptors [2]; NAc) was 9.57 and the Bavail (D2/3 receptors [2]; SupC, fixed appKd) was 3.97 pmol/mL. For the same compound, the Bavail (D2/3 receptors [2]; VTA, fixed appKd) was 4.01 pmol/mL, the fraction unbound ([3]; male, Mdr1a (P-glycoprotein) knock-out, read-out: Average percentage of radiotracer bound to plasma proteins (converted)) was 0.78 and the “A1 of bi-exponential function of mean percent non-metabolized plasma radiotracer” value [3] was 0.61. For the same compound, the “A2 of bi-exponential function of mean percent non-metabolized plasma radiotracer” value [3] was 0.27 and the f1 [3] was 0.22 ± 0.06.
For `O=C(CCCN1CCC(O)(c2ccc(Cl)cc2)CC1)c1ccc(F)cc1` [haloperidol], the “increase in Bavail vs vehicle-treated group” value (D2/3 receptors [4]; left CP, p = 0.07) was 17.9% and 17.97%, the “Bavail of [^123I]epidepride in haloperidol-treated group” value (D2/3 receptors [4]; left CP) was 25.67 ± 2.30 pmol/mL and the “increase in Bavail vs vehicle-treated group” value (D2/3 receptors [4]; right CP, p = 0.12) was 13.8% and 13.84%. For the same compound, the “Bavail of [^123I]epidepride in haloperidol-treated group” value (D2/3 receptors [4]; right CP) was 25.33 ± 2.52 pmol/mL.
